Results taken from ChEMBL document CHEMBL3351249, “Potent cholesteryl ester transfer protein inhibitors of reduced lipophilicity: 1,1'-spiro-substituted hexahydrofuroquinoline derivatives” (J Med Chem, 2014).

Target: T1, Cholesteryl ester transfer protein (Homo sapiens, UniProt P11597)
T1 sequence (P11597 whole entry): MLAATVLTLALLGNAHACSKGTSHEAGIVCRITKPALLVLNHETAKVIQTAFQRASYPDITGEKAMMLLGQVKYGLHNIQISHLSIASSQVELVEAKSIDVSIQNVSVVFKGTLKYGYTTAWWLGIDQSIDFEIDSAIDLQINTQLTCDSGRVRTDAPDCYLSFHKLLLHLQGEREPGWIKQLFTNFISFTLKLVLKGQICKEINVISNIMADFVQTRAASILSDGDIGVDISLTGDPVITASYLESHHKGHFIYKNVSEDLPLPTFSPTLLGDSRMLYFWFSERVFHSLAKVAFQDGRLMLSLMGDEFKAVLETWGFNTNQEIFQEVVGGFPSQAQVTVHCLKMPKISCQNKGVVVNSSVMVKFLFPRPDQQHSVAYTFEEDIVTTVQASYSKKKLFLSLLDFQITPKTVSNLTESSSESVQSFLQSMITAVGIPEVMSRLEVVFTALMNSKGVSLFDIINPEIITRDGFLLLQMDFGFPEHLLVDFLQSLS
Experiment: Inhibition of human recombinant CETP by fluorescence transfer assay

| IC50 | Structure (SMILES) |
| --- | --- |
| 548 nM | CC(C)c1nc2c(c3c1[C@@H](c1ccc(C(F)(F)F)cc1)OC3(C)C)[C@@H](O)CC(C)(C)C2 |
| 796 nM | CC(C)c1nc2c(c3c1[C@@H](c1ccc(F)cc1)OC31CCCC1)[C@@H](O)CC(C)(C)C2 |
| 29 nM | CC(C)c1nc2c(c3c1[C@@H](c1ccc(C(C)(C)C)cc1)OC31CCCC1)[C@@H](O)CC(C)(C)C2 |
